According to patent publication US10918753B2, “Use of ozone to control bioburden in precipitated calcium carbonate slurry (PCC)” (Colgate-Palmolive Company, priority 2014, dated 2021):

Test system: gram negative and gram positive bacilli
Assay: Ozone treatment of precipitated calcium carbonate slurry; bioburden / log reduction of bacteria at sampling points
Assay type: cell-based
Description: A precipitated calcium carbonate slurry was prepared as shown FIG. 1. At the precipitation phase of the “Region of High Microbial Growth”, FIG. 1), the slurry was contaminated with gram negative and gram positive bacilli. The shiny was then continuously transferred from a precipitation tank (not shown) to a neutralization tank (100). Upon entry into the neutralization tank, the slurry was neutralized using carbon dioxide. A sample was collected from the neutralization tank to assess the initial bioburden of the slurry (3.6×10^6 CFU/g). After neutralization, 3.5 or 5 ppm (depending on trial) of ozone was injected into the slurry after circulation through the pump (120) (FIG. 3). […] The pH of the slurry in the neutralization tank ranged from 6.9 to 8.3 and the temperature ranged from 24° C. to 46° C.
The degree of log reduction in bacteria was sampled at sampling point 1 (160) (FIG. 3) at time zero and every five minutes up to 40 minutes. As depicted in Table 1, below, a 1-2 log reduction of bacteria was observed after 40 minutes under recirculation.
A precipitated calcium carbonate slurry was prepared according to Example 1. Five trials were conducted. The ozone was injected as described in Example 1 at a concentration ranging from 5 ppm to 25 ppm. Samples were taken after 40 minutes of recirculation, 40 minutes after ozone contact with the slurry in the neutralization tank (100) or immediately after the slurry passed through the static mixer (140) as shown in FIG. 3. […] This difference is log reduction may be attributable to the mixing of ozone-treated slurry in the neutralization tank (100) with the non-treated slurry from the precipitation tank (not shown).
The sampling variability was confirmed in further trials by assessing the ozone concentration before and after ozone treatment and assessing the bioburden from samples taken at sampling point 1 (160) or sampling point 2 (150). In one trial, an initial bioburden (without ozone) of a sample collected from the slurry tank was 3.6×10^6 CFU/g. After an ozone injection at a 5 ppm concentration, the amount of bioburden was reduced to 1.7×10^4 CFU/g after 40 minutes recirculation. […] However, when a sample in the third trial was collected and tested at sampling point 2 (150) a few seconds after ozone injection, the bioburden was less than 10 CFU/g. Accordingly, the data support that the disclosed process using ozone treatment is capable of reducing an initial bioburden by 5 log, i.e., 10^6 to 10^1 CFU/g.

O=[O+][O-] [ozone]
log reduction of bacteria (Example 1 summary, 3.5 or 5 ppm ozone, sampling point 1, after 40 minutes under recirculation): 1-2 log | Log Reduction (Example 1 trial T1, sampling point 1, ozone 5.0 ppm, 12% PCC, pH 8.3, 24 °C, 40 minutes under recirculation): 2 log | Log Reduction (Example 1 trial T2, sampling point 1, ozone 5.0 ppm, 28% PCC, pH 7.2, 33 °C, 40 minutes under recirculation): 2 log | Log Reduction (Example 1 trial T3, sampling point 1, ozone 3.5 ppm, 39% PCC, pH 6.9, 33 °C, 40 minutes under recirculation): 1 log | Log Reduction (Example 1 trial T4, sampling point 1, ozone 5.0 ppm, 39% PCC, pH 6.9, 46 °C, 40 minutes under recirculation): 2 log | log reduction of bacteria (Example 2 summary, higher ozone injection (25 ppm)): 4-5 log | log reduction of bacteria (Example 2 summary, lower concentrations of injected ozone): 1-2 log | Log Reduction (Example 2 trial T1, sampling point 1, ozone 7.5 ppm, Recirculation, pH 8.3, 40 minutes): 2 log | Log Reduction (Example 2 trial T2, sampling point 1, ozone 7.5 ppm, Recirculation, pH 7.2, +40 minutes): +2 log | Log Reduction (Example 2 trial T3, sampling point 1, ozone 5 ppm, Within Tank, pH 6.9, 40 minutes): 1 log | Log Reduction (Example 2 trial T4, sampling point 1, ozone 25 ppm, Recirculation, pH 6.9, 40 minutes): 2 log | Log Reduction (Example 2 trial T5, sampling point 2, ozone 25 ppm, After initial flow through static mixer, pH 6.9, seconds): 4-5 log | bioburden (Example 3 another trial, initial bioburden 8.8×10^5 CFU/g, sampling point 2, seconds after ozone injection): 7.0×10^1 CFU/g | reduction of initial bioburden (Example 3 conclusion, 10^6 to 10^1 CFU/g): 5 log | bioburden (Example 3 first trial, initial bioburden 3.6×10^6 CFU/g, ozone 5 ppm, after 40 minutes recirculation): 1.7×10^4 CFU/g | bioburden (Example 3 first trial, initial bioburden 3.6×10^6 CFU/g, ozone 5 ppm, sampling point 2): 9.1×10^1 CFU/g | bioburden (Example 3 third trial, sampling point 1, after ozone treatment and 40 minutes recirculation (mixed with untreated slurry)): 8.8×10^5 CFU/g | bioburden (Example 3 third trial, sampling point 2, a few seconds after ozone injection): less than 10 CFU/g
